Data taken from US4898858A, “Cephalosporin derivatives and antibiotics containing the same” (Meiji Seika Kaisha Ltd., priority 1985, dated 1990).
Read-outs that look alike come from different tables or passages of the source.

Legend:
Test in all cases: minimum growth-inhibitory concentration (MIC) in vitro
[1] = tested on: Staphylococcus aureus 606; assay type: cell-based
[2] = tested on: Staphylococcus aureus 606 E-25; assay type: cell-based; conditions: 606E25
[3] = tested on: Staphylococcus aureus 209P JC-1; assay type: cell-based
[4] = tested on: Streptocuccus faecalis W-75; assay type: cell-based
Escherichia coli ML1410 = assay type: cell-based
[5] = tested on: Escherichia coli NIHJ JC-2; assay type: cell-based
Escherichia coli No.29 = assay type: cell-based
[6] = tested on: Klebsiella pneumoniae GN-69; assay type: cell-based
[7] = tested on: Klebsiella pneumoniae GN-118; assay type: cell-based; conditions: GN118
[8] = tested on: Salmonella typhimurium LT-2; assay type: cell-based; conditions: Salmonella enterica
[9] = tested on: Salmonella enteritidis No.11; assay type: cell-based; conditions: Salmonella enterica
Proteus vulgais GN-76 = assay type: cell-based
Proteus morganii 1510 = assay type: cell-based; conditions: Morganella morganii
Proteus rettgeri GN-624 = assay type: cell-based; conditions: Providencia rettgeri, GN624
Proteus rettgeri J-0026 = assay type: cell-based; conditions: Providencia rettgeri, J0026
[10] = tested on: Enterobacter Cloacae G-0005; assay type: cell-based
[11] = tested on: Enterobacter Cloacae G-0008; assay type: cell-based
[12] = tested on: Serratia marcescens GN-10857; assay type: cell-based; conditions: GN10857
[13] = tested on: Serratia marcescens GN-629; assay type: cell-based; conditions: GN629
[14] = tested on: Pseudomonas aeruginosa GN-10362; assay type: cell-based; conditions: GN10362
[15] = tested on: Pseudomonas aeruginosa MB-3833; assay type: cell-based; conditions: MB3833
[16] = tested on: Pseudomonas aeruginosa E-2; assay type: cell-based; conditions: E2
[17] = tested on: Proteus vulgais GN-76/C-1; conditions: Proteus vulgaris, GN76, read-out: MIC-value
[18] = NIHJJC2, Escherichia coli NIHJ JC-2, in vitro, read-out: MIC-value
[19] = GN69, Klebsiella pneumoniae GN-69, in vitro, read-out: MIC-value

Measured: MIC

Nc1nc(/C(=N/OC(CF)C(=O)O)C(=O)N[C@@H]2C(=O)N3C(C(=O)[O-])=C(CSc4cc[n+](CCF)cc4)CS[C@H]23)cs1 (stereo partly shown) [Example 6]
1.56 µg/mL: [3] | [12] | [15] | [16]
0.1 µg/mL: Escherichia coli ML1410 | Escherichia coli No.29 | [11] | [17]
3.13 µg/mL: [1] | [2] | [4] | [14]
< 0.025 µg/mL: [6]; Klebsiella pneumoniae, GN69, read-out: MIC-value | [7] | [8] | Proteus rettgeri GN-624
0.2 µg/mL: Proteus rettgeri J-0026 | [13]
0.78 µg/mL: Proteus morganii 1510
0.05 µg/mL: [5]; Escherichia coli, NIHJJC2, read-out: MIC-value | [9] | Proteus vulgais GN-76 | [10]

CC[n+]1ccc(SCC2=C(C(=O)[O-])N3C(=O)[C@@H](NC(=O)/C(=N\O[C@H](C)C(=O)O)c4csc(N)n4)[C@H]3SC2)cc1 [Example 9, (6R,7R)-7-[(Z)-2-(2-Aminothiazol-4-yl)-2-{(1R)-carboxyethoxyimino}acetamid]-3-(1-ethylpyridinium-4-ylthiomethyl)-ceph-3-em-4-carboxylate]
0.1 µg/mL: Escherichia coli ML1410 | [5]; [18] | Escherichia coli No.29 | Proteus vulgais GN-76 | [11] | [17]
3.13 µg/mL: [3] | [14] | [15]
1.56 µg/mL: [12] | [16]
< 0.025 µg/mL: [9] | Proteus rettgeri GN-624
0.05 µg/mL: [6]; [19] | [7] | [8]
6.25 µg/mL: [1] | [2] | [4]
0.2 µg/mL: Proteus rettgeri J-0026 | [10]
0.39 µg/mL: [13]
0.78 µg/mL: Proteus morganii 1510

C[C@H](O/N=C(\C(=O)N[C@@H]1C(=O)N2C(C(=O)[O-])=C(CSc3cc[n+](C)cc3)CS[C@H]12)c1csc(N)n1)C(=O)O [Example 7, (6R,7R)-7-[(Z)-2-(2-Aminothiazol-4-yl)-2-{(1S)-carboxyethoxyimino}acetamid]-3-(1-methylpyridinium-4-ylthiomethyl)-ceph-3-em-4-carboxylate]
0.78 µg/mL: [14] | [15] | [16]
0.1 µg/mL: Escherichia coli ML1410 | [5]; [18] | Escherichia coli No.29 | Proteus rettgeri J-0026 | [11] | [13]
0.05 µg/mL: [10] | [17]
3.13 µg/mL: [1] | [2]
< 0.025 µg/mL: [6]; [19] | [7] | [8] | [9] | Proteus rettgeri GN-624
0.39 µg/mL: [12]
0.025 µg/mL: Proteus vulgais GN-76
1.56 µg/mL: [3] | [4] | Proteus morganii 1510

C[C@H](O/N=C(\C(=O)N[C@@H]1C(=O)N2C(C(=O)[O-])=C(CSc3cc[n+](CCF)cc3)CS[C@H]12)c1csc(N)n1)C(=O)O [Example 3, (6R,7R)-7-[(Z)-2-(2-Aminothiazol-4-yl)-2-{(1S)-carboxyethoxyimino}acetamido]-3-[{1-(2-fluoroethyl)pyridinium}-4-ylthiomethyl]-ceph-3-em-4-carboxylate]
0.78 µg/mL: [12]
0.2 µg/mL: [13]
0.05 µg/mL: [6]; [19] | Proteus rettgeri GN-624 | [10] | [17]
< 0.025 µg/mL: [7] | [8] | [9] | Proteus vulgais GN-76
0.1 µg/mL: Escherichia coli ML1410 | [5]; [18] | Escherichia coli No.29 | Proteus rettgeri J-0026 | [11]
1.56 µg/mL: [3] | [4] | Proteus morganii 1510 | [14] | [15] | [16]
3.13 µg/mL: [1] | [2]

Nc1nc(/C(=N/OC(C(=O)O)C2CCCCC2)C(=O)N[C@@H]2C(=O)N3C(C(=O)[O-])=C(CSc4cc[n+](CCF)cc4)CS[C@H]23)cs1 (stereo partly shown) [Example 5]
0.39 µg/mL: Proteus rettgeri GN-624
12.5 µg/mL: [14] | [15] | [16]
1.56 µg/mL: [3] | [6]; [19] | [7]
6.25 µg/mL: Proteus morganii 1510 | [12] | [13]
0.78 µg/mL: Proteus vulgais GN-76 | [17]
3.13 µg/mL: [1] | [2] | [4] | Escherichia coli ML1410 | [5]; [18] | Escherichia coli No.29 | [8] | Proteus rettgeri J-0026 | [10] | [11]
0.2 µg/mL: [9]
